Assay results reported in PubChem BioAssay AID248 (DTP/NCI, 2004).
Several values for one entry are separate records, joined by “and”; a condition that tells them apart may be missing. Identical values can stand only once. Inconclusive results and toxic doses are left out. Rule as the data show it: active = T/C of 150% or more; inactive = T/C below 125%.

Tested on: L1210 leukemia ip in BDF1 mice, survival T/C
Assay: NCI In Vivo Anticancer Drug Screen. Data for tumor model L1210 Leukemia (intraperitoneal) in B6D2F1 (BDF1) mice
Settings: endpoint: mean survival time, higher = longer survival
Procedure, shortened: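 Each compound was tested against a transplantable tumor grown in mice. The endpoint was survival, with treated animals benchmarked against vehicle controls as a simple ratio.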

[1] = dose: 100.0 mg/kg/injection, schedule: Q04DX003 (ip), vehicle: saline with Tween-80
[2] = dose: 200.0 mg/kg/injection, schedule: Q04DX003 (ip), vehicle: saline with Tween-80
[3] = dose: 400.0 mg/kg/injection, schedule: Q04DX003 (ip), vehicle: saline with Tween-80
[4] = dose: 100.0 mg/kg/injection, schedule: Q04DX002 (ip), vehicle: Klucel (hydroxypropylcellulose) (HPC)
[5] = dose: 50.0 mg/kg/injection, schedule: Q01DX001 (ip), vehicle: saline
[6] = dose: 100.0 mg/kg/injection, schedule: Q01DX001 (ip), vehicle: saline
[7] = dose: 200.0 mg/kg/injection, schedule: Q01DX001 (ip), vehicle: saline
[8] = dose: 400.0 mg/kg/injection, schedule: Q01DX001 (ip), vehicle: saline
[9] = dose: 100.0 mg/kg/injection, schedule: Q01DX001 (ip), vehicle: Klucel (hydroxypropylcellulose) (HPC)
[10] = dose: 100.0 mg/kg/injection, schedule: Q01DX009 (ip), vehicle: saline
[11] = dose: 100.0 mg/kg/injection, schedule: Q04DX003 (ip), vehicle: saline
[12] = dose: 200.0 mg/kg/injection, schedule: Q01DX009 (ip), vehicle: saline
[13] = dose: 200.0 mg/kg/injection, schedule: Q04DX003 (ip), vehicle: saline
[14] = dose: 400.0 mg/kg/injection, schedule: Q01DX009 (ip), vehicle: saline
[15] = dose: 400.0 mg/kg/injection, schedule: Q04DX003 (ip), vehicle: saline
[16] = dose: 100.0 mg/kg/injection, schedule: Q04DX003 (ip), vehicle: Klucel (hydroxypropylcellulose) (HPC)
[17] = dose: 200.0 mg/kg/injection, schedule: Q04DX003 (ip), vehicle: Klucel (hydroxypropylcellulose) (HPC)
[18] = dose: 400.0 mg/kg/injection, schedule: Q04DX003 (ip), vehicle: Klucel (hydroxypropylcellulose) (HPC)

Measured: T/C

CCCCC(O)(CCCC)C(CC)CC
inactive: [1] 108 % of control | [2] 99 % of control | [3] 101 % of control

Nc1ncc(N=O)c(=O)[nH]1
inactive: [4] 96 % of control | dose: 200.0 mg/kg/injection, schedule: Q04DX002 (ip), vehicle: Klucel (hydroxypropylcellulose) (HPC) 99 % of control | dose: 400.0 mg/kg/injection, schedule: Q04DX002 (ip), vehicle: Klucel (hydroxypropylcellulose) (HPC) 96 % of control and 101 % of control

CC1([N+](=O)[O-])COP(=O)(OCCc2ccccc2)OC1 (stereo not given)
inactive: [5] 95 % of control | [6] 98 % of control | [7] 93 % of control | [8] 98 % of control

O=S(=O)(Nc1nccs1)c1ccc(Nc2ccnc3cc(Cl)ccc23)cc1
inactive: [6] 93 % of control | [7] 95 % of control | [8] 87 % of control

O=C(O)/C=C(\CC(=O)O)C(=O)O
inactive: [9] 95 % of control | [6] 92 % of control | [7] 90 % of control | dose: 400.0 mg/kg/injection, schedule: Q01DX001 (ip), vehicle: Klucel (hydroxypropylcellulose) (HPC) 95 % of control | [8] 98 % of control

Cc1cc(C(O)c2ccccn2)c2ccccc2n1 (stereo not given)
inactive: dose: 50.0 mg/kg/injection, schedule: Q01DX009 (ip), vehicle: Klucel (hydroxypropylcellulose) (HPC) 102 % of control | [9] 106 % of control | dose: 100.0 mg/kg/injection, schedule: Q01DX009 (ip), vehicle: Klucel (hydroxypropylcellulose) (HPC) 96 % of control | dose: 200.0 mg/kg/injection, schedule: Q01DX001 (ip), vehicle: Klucel (hydroxypropylcellulose) (HPC) 96 % of control

CCOC(=O)/C(=C\c1ccc2c(c1)OCO2)NC(=O)c1ccccc1
inactive: dose: 50.0 mg/kg/injection, schedule: Q01DX009 (ip), vehicle: saline 102 % of control | [10] 102 % of control | [11] 98 % of control | [12] 118 % of control | [13] 92 % of control | [14] 100 % of control | [15] 92 % of control

O=C(O)C(O)C(F)(F)F (stereo not given)
inactive: dose: 31.0 mg/kg/injection, schedule: Q01DX Z (ip), vehicle: methylcellulose (MC) 102 % of control | dose: 62.5 mg/kg/injection, schedule: Q01DX Z (ip), vehicle: methylcellulose (MC) 96 % of control | dose: 125.0 mg/kg/injection, schedule: Q01DX Z (ip), vehicle: methylcellulose (MC) 100 % of control | dose: 250.0 mg/kg/injection, schedule: Q01DX Z (ip), vehicle: methylcellulose (MC) 97 % of control

O=S(=O)(O)c1cccc(S(=O)(=O)O)c1
inactive: [10] 105 % of control | [12] 103 % of control | [14] 97 % of control

Cc1ccc(O)cc1Cl
inactive: [10] 104 % of control | [11] 95 % of control | [12] 101 % of control | [13] 104 % of control | [14] 95 % of control | [15] 96 % of control

CC(/C=C/c1ccccc1Cl)=N\NC(=O)c1ccncc1
inactive: dose: 100.0 mg/kg/injection, schedule: Q01DX001 (ip), vehicle: saline with Tween-80 95 % of control | dose: 200.0 mg/kg/injection, schedule: Q01DX001 (ip), vehicle: saline with Tween-80 95 % of control | dose: 400.0 mg/kg/injection, schedule: Q01DX001 (ip), vehicle: saline with Tween-80 90 % of control

CCCCCCCCCCCCSCO
inactive: dose: 25.0 mg/kg/injection, schedule: Q01DX009 (ip), vehicle: saline with Tween-80 118 % of control | dose: 50.0 mg/kg/injection, schedule: Q01DX009 (ip), vehicle: saline with Tween-80 105 % of control | dose: 100.0 mg/kg/injection, schedule: Q01DX009 (ip), vehicle: saline with Tween-80 101 % of control and 91 % of control | [1] 105 % of control | dose: 200.0 mg/kg/injection, schedule: Q01DX009 (ip), vehicle: saline with Tween-80 90 % of control | [2] 96 % of control

CC(C)/[N+]([O-])=C/C=C/c1ccccc1
inactive: [16] 96 % of control | [17] 97 % of control | [18] 100 % of control

O=S(=O)(O)Nc1ccc(Cl)cc1
inactive: dose: 25.0 mg/kg/injection, schedule: Q04DX002 (ip), vehicle: Klucel (hydroxypropylcellulose) (HPC) 102 % of control | dose: 50.0 mg/kg/injection, schedule: Q04DX002 (ip), vehicle: Klucel (hydroxypropylcellulose) (HPC) 102 % of control | [4] 102 % of control

O=C1OC2c3ccccc3C3CC(=O)C2C13 (stereo not given)
inactive: [5] 98 % of control | [6] 104 % of control | [7] 98 % of control | [8] 96 % of control

Cc1ccc(C(=O)/C=C/N2CCN(c3ccccc3)CC2)c(C)c1
inactive: [1] 100 % of control | [2] 105 % of control | [3] 98 % of control

NSc1ccccc1[N+](=O)[O-]
inactive: [16] 100 % of control | [17] 105 % of control | [18] 100 % of control

CCCCCCc1cc(OC(=O)c2ccccc2)ccc1OC(=O)c1ccccc1
inactive: dose: 50.0 mg/kg/injection, schedule: Q01DX001 (ip), vehicle: carboxymethylcellulose (CMC) 94 % of control | dose: 100.0 mg/kg/injection, schedule: Q01DX001 (ip), vehicle: carboxymethylcellulose (CMC) 97 % of control | dose: 200.0 mg/kg/injection, schedule: Q01DX001 (ip), vehicle: carboxymethylcellulose (CMC) 89 % of control | dose: 400.0 mg/kg/injection, schedule: Q01DX001 (ip), vehicle: carboxymethylcellulose (CMC) 97 % of control

CCCCCCCCCCCCBr
inactive: dose: 100.0 mg/kg/injection, schedule: Q04DX002 (ip), vehicle: saline with Tween-80 102 % of control | dose: 200.0 mg/kg/injection, schedule: Q04DX002 (ip), vehicle: saline with Tween-80 97 % of control | dose: 400.0 mg/kg/injection, schedule: Q04DX002 (ip), vehicle: saline with Tween-80 102 % of control

O=c1[nH]c2nccnc2[nH]1
inactive: dose: 25.0 mg/kg/injection, schedule: Q01DX009 (ip), vehicle: water 91 % of control | dose: 50.0 mg/kg/injection, schedule: Q01DX009 (ip), vehicle: water 107 % of control | dose: 200.0 mg/kg/injection, schedule: Q01DX009 (ip), vehicle: water 96 % of control

COc1ccc(OC)c2c(=O)cc(C)[nH]c12
inactive: [6] 100 % of control | [7] 92 % of control | [8] 102 % of control

CC(=O)/C(C)=N/O
inactive: [6] 98 % of control | [7] 98 % of control | [8] 96 % of control

C1C[S+]2CCN1CC2
inactive: [5] 95 % of control

C[C@]12CC[C@@H]3c4ccc(O)cc4CC[C@H]3[C@@H]1C[C@H](O)C2
inactive: dose: 100.0 mg/kg/injection, schedule: Q01DX001 (sc), vehicle: steriod suspending solution 98 % of control | dose: 100.0 mg/kg/injection, schedule: Q04DX003 (sc), vehicle: steriod suspending solution 96 % of control | dose: 200.0 mg/kg/injection, schedule: Q01DX001 (sc), vehicle: steriod suspending solution 102 % of control | dose: 200.0 mg/kg/injection, schedule: Q04DX003 (sc), vehicle: steriod suspending solution 104 % of control | dose: 400.0 mg/kg/injection, schedule: Q01DX001 (sc), vehicle: steriod suspending solution 105 % of control | dose: 400.0 mg/kg/injection, schedule: Q04DX003 (sc), vehicle: steriod suspending solution 94 % of control
